# Reference: patent EP4745135A1 (Gluetacs Therapeutics (Shanghai) Co., Ltd., priority 2023, dated 2025)
# Experiments:
# [1] = test system: GSPT1; assay: Western blot, degradation of substrate protein in hPBMCs; format: cell-based, Human
# [2] = molecular target: T1, CK1α (Homo sapiens, UniProt P48729+Q96SW2); assay: as above; format: cell-based
# T1 construct: effects of the compounds of the present disclosure on the expression of target proteins in cells; endogenous in cells; host or cells: human PBMCs (Milecell Biotechnologies)
# T1 sequence (P48729 whole entry): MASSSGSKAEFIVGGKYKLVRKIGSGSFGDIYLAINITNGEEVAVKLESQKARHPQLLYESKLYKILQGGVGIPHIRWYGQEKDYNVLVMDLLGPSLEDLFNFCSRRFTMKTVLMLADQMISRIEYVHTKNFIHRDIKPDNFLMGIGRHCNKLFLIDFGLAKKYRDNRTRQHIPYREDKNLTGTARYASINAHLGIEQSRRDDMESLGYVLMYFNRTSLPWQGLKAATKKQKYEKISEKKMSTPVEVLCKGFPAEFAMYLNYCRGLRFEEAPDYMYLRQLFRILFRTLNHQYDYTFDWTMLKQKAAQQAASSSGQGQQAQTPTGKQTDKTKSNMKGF
# T1 sequence (Q96SW2 whole entry): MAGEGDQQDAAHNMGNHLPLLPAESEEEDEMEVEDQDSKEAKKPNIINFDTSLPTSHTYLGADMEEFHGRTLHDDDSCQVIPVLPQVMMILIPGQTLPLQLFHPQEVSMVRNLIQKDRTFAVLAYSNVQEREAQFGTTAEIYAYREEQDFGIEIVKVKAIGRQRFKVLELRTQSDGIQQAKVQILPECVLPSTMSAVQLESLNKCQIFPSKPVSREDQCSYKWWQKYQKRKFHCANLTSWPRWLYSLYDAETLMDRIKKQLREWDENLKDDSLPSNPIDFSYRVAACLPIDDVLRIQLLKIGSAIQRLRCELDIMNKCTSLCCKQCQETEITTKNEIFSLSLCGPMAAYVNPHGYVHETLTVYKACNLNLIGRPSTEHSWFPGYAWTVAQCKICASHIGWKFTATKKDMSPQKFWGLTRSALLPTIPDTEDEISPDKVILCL
# T1 sequence (Q16531 whole entry partner): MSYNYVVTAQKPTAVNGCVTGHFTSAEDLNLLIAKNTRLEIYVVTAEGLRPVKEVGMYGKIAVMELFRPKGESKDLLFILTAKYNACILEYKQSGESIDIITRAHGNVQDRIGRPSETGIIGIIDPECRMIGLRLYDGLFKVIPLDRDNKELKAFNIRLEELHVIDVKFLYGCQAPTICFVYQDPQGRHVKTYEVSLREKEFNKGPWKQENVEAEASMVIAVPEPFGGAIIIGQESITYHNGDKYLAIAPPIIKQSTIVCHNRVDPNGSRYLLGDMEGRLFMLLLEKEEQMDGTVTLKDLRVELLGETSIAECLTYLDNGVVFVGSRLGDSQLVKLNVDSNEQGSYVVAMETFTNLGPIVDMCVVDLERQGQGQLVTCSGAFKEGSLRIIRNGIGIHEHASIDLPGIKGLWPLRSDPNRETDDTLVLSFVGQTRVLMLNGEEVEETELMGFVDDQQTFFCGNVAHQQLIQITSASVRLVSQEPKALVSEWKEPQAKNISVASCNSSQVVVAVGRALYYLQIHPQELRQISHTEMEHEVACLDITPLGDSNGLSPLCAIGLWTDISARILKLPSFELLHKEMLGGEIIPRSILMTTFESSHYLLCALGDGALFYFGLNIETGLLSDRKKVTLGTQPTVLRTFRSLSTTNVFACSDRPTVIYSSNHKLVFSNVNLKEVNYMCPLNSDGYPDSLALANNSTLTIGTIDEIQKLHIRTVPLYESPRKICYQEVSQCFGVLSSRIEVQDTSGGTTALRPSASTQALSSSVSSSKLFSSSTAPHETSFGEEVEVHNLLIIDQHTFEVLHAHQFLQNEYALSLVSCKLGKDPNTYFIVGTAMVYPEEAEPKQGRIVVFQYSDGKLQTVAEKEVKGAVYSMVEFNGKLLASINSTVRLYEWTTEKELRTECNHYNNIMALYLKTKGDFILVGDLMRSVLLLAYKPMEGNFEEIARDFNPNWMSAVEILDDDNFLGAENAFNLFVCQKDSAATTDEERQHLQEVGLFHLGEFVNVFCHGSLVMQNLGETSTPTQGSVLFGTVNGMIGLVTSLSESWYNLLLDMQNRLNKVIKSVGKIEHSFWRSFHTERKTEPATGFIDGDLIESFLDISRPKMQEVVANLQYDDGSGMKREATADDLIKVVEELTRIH
# [3] = molecular target: T2, WEE1 (Homo sapiens, UniProt P30291+Q96SW2); assay: as above; format: cell-based
# T2 construct: effects of the compounds of the present disclosure on the expression of target proteins in cells; endogenous in cells; host or cells: human PBMCs (Milecell Biotechnologies)
# T2 sequence (P30291 whole entry): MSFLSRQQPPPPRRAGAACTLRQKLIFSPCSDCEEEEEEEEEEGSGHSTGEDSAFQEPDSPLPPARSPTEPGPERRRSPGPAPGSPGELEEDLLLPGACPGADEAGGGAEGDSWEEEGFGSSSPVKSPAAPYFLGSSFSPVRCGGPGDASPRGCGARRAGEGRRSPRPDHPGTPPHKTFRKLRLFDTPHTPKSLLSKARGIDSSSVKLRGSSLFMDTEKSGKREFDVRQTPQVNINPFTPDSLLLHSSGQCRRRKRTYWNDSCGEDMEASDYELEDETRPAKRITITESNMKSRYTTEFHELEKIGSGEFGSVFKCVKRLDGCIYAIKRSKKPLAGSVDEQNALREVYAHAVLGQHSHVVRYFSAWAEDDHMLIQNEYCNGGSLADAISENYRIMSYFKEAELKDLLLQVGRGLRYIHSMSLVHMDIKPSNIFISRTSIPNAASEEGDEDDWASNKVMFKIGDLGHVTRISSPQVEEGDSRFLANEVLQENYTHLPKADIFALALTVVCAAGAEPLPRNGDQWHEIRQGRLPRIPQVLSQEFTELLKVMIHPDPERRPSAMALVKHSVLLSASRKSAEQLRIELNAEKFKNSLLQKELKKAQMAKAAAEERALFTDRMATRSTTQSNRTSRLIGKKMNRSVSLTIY
# T2 sequence (Q96SW2 whole entry): as the sequence (Q96SW2 whole entry) above
# T2 sequence (Q16531 whole entry partner): as the sequence (Q16531 whole entry partner) above
# [4] = molecular target: T3, IKZF3 (Homo sapiens, UniProt Q96SW2+Q9UKT9); assay: as above; format: cell-based
# T3 construct: effects of the compounds of the present disclosure on the expression of target proteins in cells; endogenous in cells; host or cells: human PBMCs (Milecell Biotechnologies)
# T3 sequence (Q9UKT9 whole entry): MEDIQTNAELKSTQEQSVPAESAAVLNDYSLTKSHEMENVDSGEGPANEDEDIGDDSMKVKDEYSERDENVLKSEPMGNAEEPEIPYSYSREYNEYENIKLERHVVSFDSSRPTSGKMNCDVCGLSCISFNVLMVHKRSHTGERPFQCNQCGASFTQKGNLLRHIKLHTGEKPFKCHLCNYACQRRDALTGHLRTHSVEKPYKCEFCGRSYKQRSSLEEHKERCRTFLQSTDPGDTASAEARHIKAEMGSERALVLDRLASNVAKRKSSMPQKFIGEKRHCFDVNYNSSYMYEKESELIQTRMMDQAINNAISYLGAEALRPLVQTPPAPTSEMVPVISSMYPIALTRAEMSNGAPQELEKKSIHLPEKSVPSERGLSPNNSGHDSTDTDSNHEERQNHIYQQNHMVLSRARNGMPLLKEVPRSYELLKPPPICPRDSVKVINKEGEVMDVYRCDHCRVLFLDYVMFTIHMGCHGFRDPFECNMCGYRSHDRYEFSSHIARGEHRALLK
# T3 sequence (Q96SW2 whole entry): as the sequence (Q96SW2 whole entry) above
# T3 sequence (Q16531 whole entry partner): as the sequence (Q16531 whole entry partner) above
# [5] = molecular target: T4, IKZF2 (Homo sapiens, UniProt Q96SW2+Q9UKS7); assay: as above; format: cell-based
# T4 construct: effects of the compounds of the present disclosure on the expression of target proteins in cells; endogenous in cells; host or cells: human PBMCs (Milecell Biotechnologies)
# T4 sequence (Q9UKS7 whole entry): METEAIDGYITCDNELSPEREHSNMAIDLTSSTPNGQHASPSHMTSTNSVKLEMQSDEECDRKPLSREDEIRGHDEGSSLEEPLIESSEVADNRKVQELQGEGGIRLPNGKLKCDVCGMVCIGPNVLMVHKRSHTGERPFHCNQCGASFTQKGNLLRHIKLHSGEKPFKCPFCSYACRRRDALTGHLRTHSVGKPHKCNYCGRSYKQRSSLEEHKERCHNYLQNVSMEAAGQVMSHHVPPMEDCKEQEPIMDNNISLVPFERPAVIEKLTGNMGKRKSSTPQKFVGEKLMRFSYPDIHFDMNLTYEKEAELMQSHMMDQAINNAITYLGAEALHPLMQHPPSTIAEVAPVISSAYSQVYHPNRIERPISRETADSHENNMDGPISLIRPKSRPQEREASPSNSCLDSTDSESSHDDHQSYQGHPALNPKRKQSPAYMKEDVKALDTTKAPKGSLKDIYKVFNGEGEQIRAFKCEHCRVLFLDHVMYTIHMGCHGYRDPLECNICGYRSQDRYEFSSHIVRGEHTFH
# T4 sequence (Q96SW2 whole entry): as the sequence (Q96SW2 whole entry) above
# T4 sequence (Q16531 whole entry partner): as the sequence (Q16531 whole entry partner) above
# [6] = molecular target: T5, IKZF1 (Homo sapiens, UniProt Q13422+Q96SW2); assay: as above; format: cell-based
# T5 construct: effects of the compounds of the present disclosure on the expression of target proteins in cells; endogenous in cells; host or cells: human PBMCs (Milecell Biotechnologies)
# T5 sequence (Q13422 whole entry): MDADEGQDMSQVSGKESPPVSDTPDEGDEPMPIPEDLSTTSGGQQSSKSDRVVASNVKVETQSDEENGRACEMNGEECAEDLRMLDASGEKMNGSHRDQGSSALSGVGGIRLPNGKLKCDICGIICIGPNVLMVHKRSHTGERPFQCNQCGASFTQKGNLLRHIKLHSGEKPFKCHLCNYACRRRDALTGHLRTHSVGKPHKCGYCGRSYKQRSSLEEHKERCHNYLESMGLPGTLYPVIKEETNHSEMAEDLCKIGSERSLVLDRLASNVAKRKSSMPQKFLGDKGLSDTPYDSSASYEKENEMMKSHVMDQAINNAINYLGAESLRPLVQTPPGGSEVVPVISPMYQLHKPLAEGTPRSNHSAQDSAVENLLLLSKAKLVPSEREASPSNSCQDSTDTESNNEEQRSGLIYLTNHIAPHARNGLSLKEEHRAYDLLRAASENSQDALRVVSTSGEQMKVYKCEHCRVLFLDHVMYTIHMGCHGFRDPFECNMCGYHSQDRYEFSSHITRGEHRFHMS
# T5 sequence (Q96SW2 whole entry): as the sequence (Q96SW2 whole entry) above
# T5 sequence (Q16531 whole entry partner): as the sequence (Q16531 whole entry partner) above
# [7] = molecular target: T6, human Cereblon WT GST-tagged protein (Homo sapiens, UniProt Q96SW2); assay: CRBN-binding affinity, HTRF (CEREBLON BINDING kit); details: for inhibition at 0.5 µM: read-out: Inhibition Rate at 0.5 µM (%); for inhibition at 2 µM: read-out: Inhibition Rate at 2 µM (%)
# T6 construct: purchased CISBIO 64BDCRBNPEH
# T6 sequence (Q96SW2 whole entry): as the sequence (Q96SW2 whole entry) above
# [8] = Western blot, 24 hours of compound treatment, compounds tested at 50 nM and 500 nM (concentration for the table not stated)
# [9] = 24 hours treatment, compounds at 50 nM and 500 nM (concentration behind the class not stated)
SMILES,"GSPT1 substrate protein remaining % [1, 8]","CK1α substrate protein remaining % [2, 8]","Wee1 substrate protein remaining % [3, 8]","IKZF3 substrate protein remaining % [4, 8]","IKZF2 substrate protein remaining % [5, 8]","IKZF 1 substrate protein remaining % [6, 8]",inhibition at 0.5 µM [7],inhibition at 2 µM [7],"GSPT1 substrate protein remaining % [1, 9]","CK1α substrate protein remaining % [2, 9]","Wee1 substrate protein remaining % [3, 9]","IKZF3 substrate protein remaining % [4, 9]","IKZF2 substrate protein remaining % [5, 9]","IKZF 1 substrate protein remaining % [6, 9]"
"Cn1cc(C2=CCN(Cc3cccc4c3CN(C3CCC(=O)NC3=O)C4=S)CC2)c2ccc(F)cc21 (stereo not drawn) [GT-08493, 3-(4-((4-(6-fluoro-1-methyl-1H-indol-3-yl)-3,6-dihydropyridin-1(2H)-yl)methyl)-1-thioxoisoindolin-2-yl)piperidine-2,6-dione]",A (0% ≤ substrate protein remaining % ≤ 80%),B (80%< substrate protein remaining %≤ 100%),B (80%< substrate protein remaining %≤ 100%),B (80%< substrate protein remaining %≤ 100%),A (0% ≤ substrate protein remaining % ≤ 80%),B (80%< substrate protein remaining %≤ 100%),40 to 53%,80 to 100%,–,–,–,–,–,–
"Cc1nc(C2CCN(Cc3cccc4c3CN(C3CCC(=O)NC3=O)C4=S)CC2)c2ccsc2n1 (stereo not drawn) [GT-08932, 3-(4-((4-(2-methylthieno[2,3-d]pyrimidin-4-yl)piperidin-1-yl)methyl)-1-thioxoisoindolin-2-yl)piperidine-2,6-dione]",–,–,–,–,–,–,60 to 80%,80 to 100%,B (80%< substrate protein remaining %≤ 100%),B (80%< substrate protein remaining %≤ 100%),A (0% ≤ substrate protein remaining % ≤ 80%),B (80%< substrate protein remaining %≤ 100%),B (80%< substrate protein remaining %≤ 100%),B (80%< substrate protein remaining %≤ 100%)
"O=C1CCC(N2Cc3c(CN4CCN(c5ncnc6sc(Br)cc56)CC4)cccc3C2=S)C(=O)N1 (stereo not drawn) [GT-08918, 3-(4-((4-(6-bromothieno[2,3-d]pyrimidin-4-yl)piperazin-1-yl)methyl)-1-thioxoisoindolin-2-yl)piperidine-2,6-dione]",–,–,–,–,–,–,60 to 80%,80 to 100%,B (80%< substrate protein remaining %≤ 100%),B (80%< substrate protein remaining %≤ 100%),A (0% ≤ substrate protein remaining % ≤ 80%),B (80%< substrate protein remaining %≤ 100%),B (80%< substrate protein remaining %≤ 100%),B (80%< substrate protein remaining %≤ 100%)
"O=C1CCC(N2Cc3c(CN4CCN(c5c(F)cccc5F)CC4)cccc3C2=S)C(=O)N1 (stereo not drawn) [GT-08630, 3-(4-((4-(2,6-difluorophenyl)piperazin-1-yl)methyl)-1-thioxoisoindolin-2-yl)piperidine-2,6-dione]",A (0% ≤ substrate protein remaining % ≤ 80%),B (80%< substrate protein remaining %≤ 100%),A (0% ≤ substrate protein remaining % ≤ 80%),B (80%< substrate protein remaining %≤ 100%),B (80%< substrate protein remaining %≤ 100%),B (80%< substrate protein remaining %≤ 100%),53 to 60%,60 to 80%,–,–,–,–,–,–
"O=C1CCC(N2Cc3cc(CN4CC=C(c5ccnc(F)c5F)CC4)ccc3C2=S)C(=O)N1 (stereo not drawn) [GT-08474, 3-(5-((2',3'-difluoro-3,6-dihydro-[4,4'-bipyridin]-1(2H)-yl)methyl)-1-thioxoisoindolin-2-yl)piperidine-2,6-dione]",A (0% ≤ substrate protein remaining % ≤ 80%),B (80%< substrate protein remaining %≤ 100%),B (80%< substrate protein remaining %≤ 100%),B (80%< substrate protein remaining %≤ 100%),B (80%< substrate protein remaining %≤ 100%),B (80%< substrate protein remaining %≤ 100%),80 to 100%,80 to 100%,–,–,–,–,–,–
"O=C1CCC(N2Cc3c(CN4CCN(c5ccc(Cl)cn5)CC4)cccc3C2=S)C(=O)N1 (stereo not drawn) [GT-08694, 3-(4-((4-(5-chloropyridin-2-yl)piperazin-1-yl)methyl)-1-thioxoisoindolin-2-yl)piperidine-2,6-dione]",A (0% ≤ substrate protein remaining % ≤ 80%),B (80%< substrate protein remaining %≤ 100%),A (0% ≤ substrate protein remaining % ≤ 80%),B (80%< substrate protein remaining %≤ 100%),B (80%< substrate protein remaining %≤ 100%),B (80%< substrate protein remaining %≤ 100%),40 to 53%,60 to 80%,–,–,–,–,–,–
"O=C1CCC(N2Cc3c(CN4CCC(N5CCCc6cc(F)ccc65)CC4)cccc3C2=S)C(=O)N1 (stereo not drawn) [GT-08851, 3-(4-((4-(6-fluoro-3,4-dihydroquinolin-1(2H)-yl)piperidin-1-yl)methyl)-1-thioxoisoindolin-2-yl)piperidine-2,6-dione]",A (0% ≤ substrate protein remaining % ≤ 80%),B (80%< substrate protein remaining %≤ 100%),A (0% ≤ substrate protein remaining % ≤ 80%),B (80%< substrate protein remaining %≤ 100%),B (80%< substrate protein remaining %≤ 100%),B (80%< substrate protein remaining %≤ 100%),40 to 53%,60 to 80%,–,–,–,–,–,–
"O=C1CCC(N2Cc3c(CN4CC=C(c5cncc(Cl)c5Cl)CC4)cccc3C2=S)C(=O)N1 (stereo not drawn) [GT-08460, 3-(4-((4,5-dichloro-3',6'-dihydro-[3,4'-bipyridin]-1'(2'H)-yl)methyl)-1-thioxoisoindolin-2-yl)piperidine-2,6-dione]",B (80%< substrate protein remaining %≤ 100%),B (80%< substrate protein remaining %≤ 100%),A (0% ≤ substrate protein remaining % ≤ 80%),A (0% ≤ substrate protein remaining % ≤ 80%),B (80%< substrate protein remaining %≤ 100%),B (80%< substrate protein remaining %≤ 100%),60 to 80%,80 to 100%,–,–,–,–,–,–
"O=C1CCC(N2Cc3c(CN4CCC(c5cccc6cnccc56)CC4)cccc3C2=S)C(=O)N1 (stereo not drawn) [GT-08857, 3-(4-((4-(isoquinolin-5-yl)piperidin-1-yl)methyl)-1-thioxoisoindolin-2-yl)piperidine-2,6-dione]",–,–,–,–,–,–,60 to 80%,80 to 100%,B (80%< substrate protein remaining %≤ 100%),B (80%< substrate protein remaining %≤ 100%),A (0% ≤ substrate protein remaining % ≤ 80%),A (0% ≤ substrate protein remaining % ≤ 80%),B (80%< substrate protein remaining %≤ 100%),B (80%< substrate protein remaining %≤ 100%)
"O=C1CCC(N2Cc3c(CN4CCN(c5ncnc6sc7c(c56)CCCC7)CC4)cccc3C2=S)C(=O)N1 (stereo not drawn) [GT-08924, 3-(4-((4-(5,6,7,8-tetrahydrobenzo[4,5]thieno[2,3-d]pyrimidin-4-yl)piperazin-1-yl)methyl)-1-thioxoisoindolin-2-yl)piperidine-2,6-dione]",–,–,–,–,–,–,40 to 53%,80 to 100%,B (80%< substrate protein remaining %≤ 100%),B (80%< substrate protein remaining %≤ 100%),A (0% ≤ substrate protein remaining % ≤ 80%),B (80%< substrate protein remaining %≤ 100%),A (0% ≤ substrate protein remaining % ≤ 80%),B (80%< substrate protein remaining %≤ 100%)
"O=C1CCC(N2Cc3c(CN4CCN(c5nc(N6CCOCC6)c6sccc6n5)CC4)cccc3C2=S)C(=O)N1 (stereo not drawn) [GT-09033, 3-(4-((4-(4-morpholinothieno[3,2-d]pyrimidin-2-yl)piperazin-1-yl)methyl)-1-thioxoisoindolin-2-yl)piperidine-2,6-dione]",–,–,–,–,–,–,60 to 80%,80 to 100%,B (80%< substrate protein remaining %≤ 100%),B (80%< substrate protein remaining %≤ 100%),A (0% ≤ substrate protein remaining % ≤ 80%),B (80%< substrate protein remaining %≤ 100%),B (80%< substrate protein remaining %≤ 100%),B (80%< substrate protein remaining %≤ 100%)
"O=C1CCC(N2Cc3c(CN4CCN(c5nc(Cl)nc6ccsc56)CC4)cccc3C2=S)C(=O)N1 (stereo not drawn) [GT-08971, 3-(4-((4-(2-chlorothieno[3,2-d]pyrimidin-4-yl)piperazin-1-yl)methyl)-1-thioxoisoindolin-2-yl)piperidine-2,6-dione]",–,–,–,–,–,–,80 to 100%,80 to 100%,B (80%< substrate protein remaining %≤ 100%),B (80%< substrate protein remaining %≤ 100%),A (0% ≤ substrate protein remaining % ≤ 80%),B (80%< substrate protein remaining %≤ 100%),B (80%< substrate protein remaining %≤ 100%),B (80%< substrate protein remaining %≤ 100%)
